These results are taken from paper PMC8012331, “Drug-induced hepatic steatosis in absence of severe mitochondrial dysfunction in HepaRG cells: proof of multiple mechanism-based toxicity” (Cell Biology and Toxicology, 2020).

One series has as its system ATP citrate lyase (ACLY). The series can be described thus: RT-qPCR ACLY mRNA in HepaRG cells. Type of series: cell-based, human. The conditions noted are these: 4 days, vs control. Here is the method: (§1) Total RNA was extracted with the Nucleospin RNA isolation system purchased from Macherey-Nagel (Düren, Germany), which included a DNase treatment step. Quantification of isolated RNAs was assessed using a Nanodrop 1000 (Thermo Fisher Scientific, Waltham, MA). RNAs were reverse-transcribed into cDNAs using the High-Capacity cDNA Reverse Transcription Kit purchased from Applied Biosystems (Woolston, UK). Gene expression was assessed by real-time quantitative PCR analysis (RT-qPCR) using SYBR Green PCR Master Mix (Applied Biosystems) and a 384-well QuantStudio™ 7 Flex Real-Time PCR System (Thermo Fisher Scientific). Sequences of the primers used to measure gene expression are presented in Supplementary Table 3. Expression of GAPDH was chosen as reference and the 2^−ΔΔCt calculation method was used to express the relative expression of each selected gene.
(In general: In qPCR the cycle at which signal appears reflects the starting amount.)

Series [1] relates to acetyl-CoA carboxylase alpha (ACACA). The series can be described thus: RT-qPCR ACACA mRNA in HepaRG cells. It counts as cell-based, human. The conditions noted are these: 4 days, vs control. Here is the method:
as §1

Series [2] has as its system stearoyl-CoA desaturase 1 (hSCD1). Description: RT-qPCR hSCD1 mRNA in HepaRG cells. The conditions noted are these: 4 days, vs control. Type of series: cell-based, human. The method, then: as §1
Series [3] concerns isolated mouse liver mitochondria. Description: Oxygen consumption of isolated mouse liver mitochondria. The following applies: state 3. It counts as biochemical. Here is the method: For all aforementioned substrates, measurements were performed in parallel without or with 2 μM rotenone in order to calculate (EC20), as previously mentioned. Oxygen consumption was measured in real-time for 60 min at 37 °C in 96-well plates using a spectrofluorometer (Tecan Infinite® 200; λExcitation 380 nm; λEmission 650 nm). The slope of fluorescence increase, corresponding to the rate of oxygen consumption, was used for calculations. EC20 was thus assessed as previously described by compiling the percentage of inhibition obtained from 4 to 12 experiments.

The next series deals with HepaRG cells. Description: Cellular ATP level (CellTiter-Glo) in HepaRG cells. The following applies: 4 days, vs controls. Type of series: cell-based, human. For orientation: In ATP-based viability assays light output follows the ATP content of the culture.

On to `COc1ccc2c(c1)c(CC(=O)O)c(C)n2C(=O)c1ccc(Cl)cc1` [INDO, indomethacin], for which the “ACLY mRNA level” value in the series on ATP citrate lyase (ACLY) is “augmented mRNA abundance”. Besides, in series [1], the “ACACA mRNA level” value was “augmented mRNA abundance”. Also, the “hSCD1 mRNA level” value in series [2] was “also increased hSCD1 mRNA level”.

In the case of `CO[C@H]1/C=C/O[C@@]2(C)Oc3c(C)c(O)c4c(O)c(c(/C=N/N5CCN(C)CC5)c(O)c4c3C2=O)NC(=O)/C(C)=C\C=C\[C@H](C)[C@H](O)[C@@H](C)[C@@H](O)[C@@H](C)[C@H](OC(C)=O)[C@@H]1C` [RIF, rifampicin], in series [3], the “EC20 for inhibition of O2 consumption, glutamate/malate” value is 34 ± 12 µM; the “EC20 for inhibition of O2 consumption, octanoyl-L-carnitine” value was determined as 17 ± 2 µM; the “EC20 for inhibition of O2 consumption, palmitoyl-L-carnitine” value was 16 ± 3 µM; the “EC20 for inhibition of O2 consumption, palmitoyl-coenzyme A + L-carnitine” value turned out to be 20 ± 4 µM. Moreover, the “Loss of cellular ATP relative to the maximum concentration selected for the study” value with HepaRG cells is recorded as 300 µM (loss of cellular ATP above 30% of the controls for higher concentrations, as shown in Supp. fig 1).
